One assay concerns the target T1, S. aureus FabH (Staphylococcus aureus, UniProt Q8NXE2).
T1 sequence (Q8NXE2 1-313): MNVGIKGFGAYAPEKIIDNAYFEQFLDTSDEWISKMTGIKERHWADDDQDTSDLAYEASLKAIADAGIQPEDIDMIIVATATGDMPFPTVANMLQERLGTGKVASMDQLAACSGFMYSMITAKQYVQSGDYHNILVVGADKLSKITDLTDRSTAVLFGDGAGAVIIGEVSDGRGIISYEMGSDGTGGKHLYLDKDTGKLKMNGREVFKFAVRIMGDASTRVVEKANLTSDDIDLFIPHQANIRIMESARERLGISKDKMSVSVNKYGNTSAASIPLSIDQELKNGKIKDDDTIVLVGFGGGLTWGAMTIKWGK
The assay is described as follows: FabH radiochemical assay, […]-ketoacyl-ACP formed. Type of assay: biochemical.

For another assay, the system named is B. subtilis FabH. The assay is described as above. The format is biochemical, Bacillus subtilis.

A word on the IC50: it is the concentration that gives 50% inhibition. On to `C=C(C(=O)O)[C@@H]1O[C@H]1CCCCC=C(C)CCC[C@H](O)CC` [compound 2, conocandin B], for which the IC50 on S. aureus FabH amounted to 18.8 ± 2.5 µM; in the assay on B. subtilis FabH, 53.5 ± 10.4 µM.

These data come from PMC8465764 (Organic letters, 2021).
